Experimental data: patent US12263226B1, “Neratinib-cyclodextrin composition and method for preparing same” (Hangzhou Jitai Pharmaceutical Technology Co., Ltd, priority 2024, dated 2025)
Read-outs that look alike come from different tables or passages of the source.

Legend:
[1] = Description: Preparation of FaSSIF solution (fasted state simulated intestinal fluid, pH 6.5): 0.42 g of NaOH, 3.44 g of NaH2PO4, and 6.19 g of NaCl were added into a beaker before 900 mL of purified water was added. The pH was adjusted and the volume was brought to 1 L with purified water. 2.24 g of FaSSIF powder was added into the 1-L buffer.
Solubility measurement: 400 μL of the FaSSIF solution was added into a scintillation flask, and a small amount of the neratinib-cyclodextrin composition powder was gradually added at room temperature with magnetic stirring until a precipitate was observed. The addition amount of the powder was recorded. The solubility of neratinib maleate was calculated from the loading amount of the powder. Dissolution measurement of the neratinib maleate substance (API): 400 μL of the FaSSIF solution was added into a scintillation flask. An excessive amount of neratinib maleate substance was added.

[2] = cited from earlier work

| Compound | solubility of neratinib maleate ([1]; FaSSIF, excess substance, stirred at room temperature 48 h, supernatant by HPLC) [µg/mL] | solubility of neratinib maleate ([1]; neutral conditions (pH 6.5)) [µg/mL] | bioavailability ([2]; fasting conditions in humans) [%] | decrease of area under curve (AUC) without the high-fat meal ([2]; humans, approved tablet) [times] |
| --- | --- | --- | --- | --- |
| neratinib maleate | 7.4 | 7.4 |  |  |
| CCOc1cc2ncc(C#N)c(Nc3ccc(OCc4ccccn4)c(Cl)c3)c2cc1NC(=O)/C=C/CN(C)C [neratinib, (E)-N-[4-[3-chloro-4-(pyridin-2-ylmethoxy)anilino]-3-cyano-7-ethoxyquinolin-6-yl]-4-(dimethylamino) but-2-enamide] |  |  | < 17 | 2.2 |
